According to publication PMC1563472, “In vitro growth inhibition of bloodstream forms of Trypanosoma brucei and Trypanosoma congolense by iron chelators” (Kinetoplastid Biology and Disease, 2006):
Like-named read-outs stand apart in the source and are kept apart here.

Columns and labels:
[1] = system: bloodstream forms of T. brucei 427-221a; experiment: Alamar Blue growth inhibition assay, T. brucei bloodstream forms; assay type: cell-based, Trypanosoma brucei; conditions: for IC50 ratio T. brucei/HL-60: IC50 ratio of cytotoxic to trypanocidal activity (selectivity index); for IC50: read-out: IC50 T. brucei
Experimental: (§1) The anti-trypanosomal activities and the general cytotoxicities of chelators were evaluated using the Alamar Blue® assay. For each reagent, the 50% inhibitory concentration (IC50) value, i.e. the concentration of a compound necessary to reduce the growth rate of the cells by 50% of that of controls, was determined.
(§2) Bloodstream forms of T. brucei TC221 was derived from the stock 427 [24] and was obtained from Prof. Peter Overath (Max-Planck Institute für Biologie, Tübingen, Germany). The animal origin of the T. brucei stock 427 cannot be definitely clarified anymore. Bloodstream forms of T. congolense STIB910 was cloned from T. congolense STIB249 which was isolated from a lion in Tansania in 1971 [25]. T. congolense STIB910 was kindly provided by Prof. Reto Brun (Swiss Tropical Institute, Switzerland). Human myeloid leukaemia HL-60 cells were obtained from the Deutsche Sammlung von Mikroorganismen und Zellkulturen GmbH (Braunschweig, Germany).
(§3) Bloodstream forms of T. brucei and T. congolense were grown in Baltz medium (EMEM plus 25 mM HEPES, 2.5 mM glucose, 1 mM Na-pyruvate, 0.05 mM hypoxanthine, 0.001 mM thymidine, 0.04 mM adenosine, 0.025 mM bathocuproindisulfonic acid, pH 7.5, 10 ml/l nonessential amino acids (100×)) supplemented with 16.7% heat-inactivated foetal bovine serum and goat serum, respectively, and 0.2 mM 2-mercaptoethanol. Human myeloid leukaemia HL-60 cells were propagated in RPMI 1640 medium supplemented with 2 mM L-glutamine and 10% heat-inactivated foetal bovine serum. All cultures were maintained in a humidified atmosphere containing 5% CO2 at 37°C (T. brucei and HL-60 cells) or at 34°C (T. congolense).
(§4) Cells were seeded into 96-well tissue culture plates in 200 μl medium containing various concentrations of chelators dissolved in H2O (deferoxamine, 2,3-dihydroxybenzoic acid, ethylenediamine-di-o-hydroxyphenylacetic acid, 5-sulfosalicylic acid, tropolone, 5-methyl-tropolone, 2,2'-bipyridine, 1,10-phenanthroline), 99% ethanol (2,4,6-tris(2pyridyl)-1,3,5-triazine, 4,7-diphenyl-1,10-phenanthroline, 8-hydroxyquinoline, dimethylglyoxime, quercetin), or 100% DMSO (bathocuproine). The controls contained the respective solvent alone. […] To ensure that the cells were in logarithmic growth phase during the entire experiment, they were seeded at an initial density of 1 × 10^4 T. brucei/ml, 4 × 10^5 T. congolense/ml, and 1 × 10^5 HL-60/ml, respectively. After 24 h (trypanosomes) or 43 h (HL-60) incubation, 20 μl of the colorimetric viability indicator Alamar Blue® was added to each well. The cells were incubated for a further 24 h (trypanosomes) or 5 h (HL-60) so that the total incubation time was 48 h. Then, the plates were read on a Dynatech MR5000 ELISA reader (Denkendorf, Germany), using a test wavelength of 550 nm and a reference wave length of 630 nm. Each test was set up in duplicate and repeated three times. The IC50 value was determined by linear interpolation according to the method described in [27].

[2] = system: bloodstream forms of T. congolense STIB910; experiment: Alamar Blue growth inhibition assay, T. congolense bloodstream forms; assay type: cell-based, Trypanosoma congolense; conditions: for IC50 ratio T. congolense/HL-60: IC50 ratio of cytotoxic to trypanocidal activity (selectivity index); for IC50: read-out: IC50 T. congolense
Experimental: as §1, §2, §3, §4

[3] = system: human myeloid leukaemia HL-60 cells; experiment: Alamar Blue general cytotoxicity assay, HL-60 cells; assay type: cell-based; conditions: read-out: IC50 HL-60 cells
Experimental: as §1, §2, §3, §4

[4] = system: bloodstream forms of T. congolense STIB910; set-up: method as in PMID 11582539; conditions: bloodstream forms of T. congolense STIB910, identical experimental conditions; cited from earlier work
[5] = system: bloodstream forms of T. brucei 427-221a; set-up: method as in PMID 11582539; conditions: cited from earlier work
[6] = Trypanosoma brucei, bloodstream forms T. brucei 427-221a, 48 h total incubation, Alamar Blue, 37°C
[7] = Trypanosoma congolense, bloodstream forms T. congolense STIB910, 48 h total incubation, Alamar Blue, 34°C
[8] = human myeloid leukaemia HL-60 cells, 48 h total incubation, Alamar Blue
[9] = Trypanosoma congolense, STIB910, 48 h
[10] = bloodstream forms T. brucei 427-221a, 48 h total incubation, Alamar Blue, 37°C

SMILES | IC50 ratio T. brucei/HL-60 [1] | IC50 [1, 6] | IC50 ratio T. congolense/HL-60 [2] | IC50 [2, 7] | IC50 [3, 8] | further results
c1cnc2c(c1)ccc1cccnc12 [1,10-Phenanthroline] | 2.6 | 3.3 µM | 1.6 | 5.3 µM | 8.5 µM | 
c1ccc(-c2ccccn2)nc1 [2,2'-Bipyridine] |  |  |  |  |  | IC50 ([1]; Trypanosoma brucei, 48 h): 46.2 µM; IC50 [2, 9]: 67 µM; IC50 ([3]; Homo sapiens, HL-60, 48 h): 28.3 µM
O=C(O)c1cccc(O)c1O [2,3-Dihydroxybenzoic acid] |  | 220 µM |  |  |  | 
c1ccc(-c2nc(-c3ccccn3)nc(-c3ccccn3)n2)nc1 [2,4,6-Tris(2-pyridyl)-1,3,5-triazine] | 3.2 | 28.6 µM | 1.2 | 75 µM | 90.1 µM | 
c1ccc(-c2ccnc3c2ccc2c(-c4ccccc4)ccnc23)cc1 [4,7-Diphenyl-1,10-phenanthroline] |  | 2 µM |  | 4.5 µM | 48.3 µM | 
Cc1ccc(O)c(=O)cc1 [5-Methyl-tropolone] | 2.0 |  | 1.6 |  | 31.1 µM | IC50 [1, 10]: 15.7 µM; IC50 ([2]; bloodstream forms T. congolense STIB910, 48 h total incubation, Alamar Blue, 34°C): 20 µM
O=C(O)c1cc(S(=O)(=O)O)ccc1O [5-Sulfosalicylic acid] |  |  |  |  |  | IC50 ([1]; Trypanosoma brucei, 48 h): > 1000 µM; IC50 [2, 9]: > 1000 µM; IC50 ([3]; Homo sapiens, HL-60, 48 h): > 1000 µM
Oc1cccc2cccnc12 [8-Hydroxyquinoline] |  |  |  |  |  | IC50 ([1]; Trypanosoma brucei, 48 h): 2.1 µM; IC50 [2, 9]: 206 µM; IC50 ([3]; Homo sapiens, HL-60, 48 h): 7.7 µM
Cc1cc(-c2ccccc2)c2ccc3c(-c4ccccc4)cc(C)nc3c2n1 [Bathocuproine, 2,9-dimethyl-4,7-diphenyl-1,10-phenanthroline] | >3.3 | 3 µM |  | > 10 µM | > 10 µM | 
CC(=O)N(O)CCCCCNC(=O)CCC(=O)N(O)CCCCCNC(=O)CCC(=O)N(O)CCCCCN [Deferoxamine] |  |  |  |  |  | IC50 ([1]; Trypanosoma brucei, 48 h): 3.3 µM; IC50 [2, 9]: 3.4 µM; IC50 ([3]; Homo sapiens, HL-60, 48 h): 97 µM
CC(=NO)C(C)=NO [Dimethylglyoxime] |  | > 100 µM |  | > 100 µM | > 100 µM | 
O=C(O)C(NCCNC(C(=O)O)c1ccccc1O)c1ccccc1O (stereo not drawn) [Ethylenediamine-di-o-hydroxyphenylacetic acid] | 2.7 |  |  |  | 325 µM | IC50 [1, 10]: 120 µM
O=c1c(O)c(-c2ccc(O)c(O)c2)oc2cc(O)cc(O)c12 [Quercetin] | >6.1 | 16.3 µM | >1.6 | 62.6 µM | > 100 µM | 
O=c1cccccc1O [Tropolone] | 0.5 | 12.5 µM | 0.3 | 18.7 µM | 6.2 µM | 
CC(=O)NCC(=O)O.CC(=O)NCC(=O)O.N=C(N)c1ccc(N=NNc2ccc(C(=N)N)cc2)cc1 [diminazene aceturate] |  |  |  |  |  | IC50 [4]: 0.5 µM
Cc1ccc(C(=O)Nc2ccc(S(=O)(=O)O)c3cc(S(=O)(=O)O)cc(S(=O)(=O)O)c23)cc1NC(=O)c1cccc(NC(=O)Nc2cccc(C(=O)Nc3cc(C(=O)Nc4ccc(S(=O)(=O)O)c5cc(S(=O)(=O)O)cc(S(=O)(=O)O)c45)ccc3C)c2)c1 [suramin] |  |  |  |  |  | IC50 ([5]; bloodstream forms of T. brucei 427-221a, identical experimental conditions): 0.4 µM; IC50 ratio (selectivity index) ([5]; cytotoxic/trypanocidal activity, drug used for sleeping sickness): 1944
